pIC50: −log10 of the molar value.
What was measured:
Wild type yeast cells = assay: FM 4-64FX fluorescence microscopy (endocytosis / membrane integrity); format: cell-based, Saccharomyces cerevisiae; settings: 5.4 µM pre-treatment for 30 minutes
Description: To test if hypoculoside affects endocytosis, we used a dye FM 4–64FX which is a fixable analog of the FM 4-64 membrane stain. We incubated logarithmically growing yeast cells with either DMSO or hypoculoside for 30 minutes and then washed the cells off the compound and resuspended them in fresh growth medium containing FM 4-64FX to visualize endocytosis and vacuolar structure. In DMSO pre-treated cells, FM 4-64FX first stained the plasma membrane (Fig. 8A) at t = 0 and stained the cytoplasmic structures after 30′ indicating its uptake by endocytosis (Fig. 8A).
Figure 8 Hypoculoside but not hypoculine disrupts the membrane integrity of yeast cells. (A) Wild type yeast cells pre-treated with either DMSO or hypoculoside (5.4 μM) were exposed to FM 4-64FX. Uptake of FM 4-64FX after 0′, 30′ and 120′ was analyzed by fluorescence microscopy of fixed cells. […] They were then treated with propidium iodide (PI) and percentage of PI-staining cells was assayed by fluorescence microscopy. Representative images of cells visualized by bright field and fluorescence microscopy are shown along with quantification of PI-staining cells (N = 100 cells) in (C).
Labelling of yeast cells with FM4-64FX (Invitrogen) was done as previously reported. […] The images were acquired using an inverted fluorescence microscope ZEISS LSM 5 LIVE (Carl Zeiss, Oberkochen, Germany).

[1] = system: Saccharomyces cerevisiae cells; assay: Recovery of yeast cells on compound-free YPD agar after treatment (cytocidal vs cytostatic); format: cell-based; settings: 21 µM for 24 h, then transfer to hypoculoside-free YPD agar plates
Description: We evaluated the potency of hypoculoside by examining its effect on the growth of Candida albicans strain (SC5314) using the Clinical and Laboratory Standards Institute (CLSI) guidelines. We used the well-known antifungal amphotericin B as a positive control. We exposed logarithmically growing Candida albicans cells to hypoculoside and amphotericin B at various concentrations and monitored the growth by recording the OD600 nm after 24 hours. […] We also tested the effect of hypoculoside on the growth of the Saccharomyces cerevisiae strain (BY4743). […] To test whether hypoculoside has cytocidal or cytostatic activity, we examined the ability of Saccharomyces cerevisiae cells to recover following treatment with either hypoculoside (21 µM) or DMSO for 24 h.
Legends for Supplementary figures and tables
Figure S1 Analysis of hypoculoside by MS/MS
Collision-Induced dissociation (CID) MS/MS fragmentation spectra of hypoculoside (8) generated at energies of 10 eV, 20 eV and 40 eV are depicted in panels A, B and C […]
Figure S2 Hypoculoside has antifungal, antibacterial and mammalian cytotoxic […]
B. Saccharomyces cerevisiae cultures in duplicate were treated with hypoculoside at the indicated concentrations in YPD medium at 30 °C for 24 hours. Growth of the yeast cultures as measured by OD600 nm is plotted against hypoculoside concentration. […]

[2] = system: Candida albicans strain SC5314; assay: Broth microdilution growth inhibition of Candida albicans (CLSI guidelines, OD600 after 24 h); format: cell-based; settings: strain SC5314, OD600 nm after 24 hours, read-out: IC50 for inhibition of growth of C. albicans cells
Description: Figure 2 Hypoculoside has antifungal activity. (A) Workflow used in the purification and analysis of hypoculoside from Acremonium sp. F2434. (B) Structure of hypoculoside (8) and its aglycone derivative hypoculine (9). (C) Logarithmically growing Candida albicans cells were exposed to hypoculoside and amphotericin B at various concentrations in triplicates in a 96-well microplate. Growth of the cells was quantified by recording the absorbance at 600 nm after 24 hours. Growth (normalized with respect to DMSO-treated cells) is plotted against log of concentration of the compound. A picture of the microplate after 24 hours of incubation at 30 °C is shown in Supplementary Fig. S2A. (D) Effect of hypoculoside on the growth of Saccharomyces cerevisiae cells grown in YPD medium was analyzed in the similar way as for Candida albicans described above in C.
We evaluated the potency of hypoculoside by examining its effect on the growth of Candida albicans strain (SC5314) using the Clinical and Laboratory Standards Institute (CLSI) guidelines. We used the well-known antifungal amphotericin B as a positive control. We exposed logarithmically growing Candida albicans cells to hypoculoside and amphotericin B at various concentrations and monitored the growth by recording the OD600 nm after 24 hours. […]

## CC(N)C(O)CCCCCCCCCCCCCCCCCCC(O)C(C)OC1OC(CO)C(O)C(O)C1O (stereo not drawn) [hypoculoside, Hypoculoside]
Wild type yeast cells
  FM 4-64FX staining pattern of pre-treated cells: stained the cytoplasmic contents even at t = 0
[1]
  cytocidal or cytostatic activity (ability to recover following treatment): cytocidal activity
[2]
  pIC50: 5.12

Source: paper PMC6345779, “Hypoculoside, a sphingoid base-like compound from Acremonium disrupts the membrane integrity of yeast cells” (Scientific Reports, 2019)
